Columns and labels:
Fibroblast = experiment: Incucyte cell viability with human fibroblast; format: toxicity, cell-based; settings: 10 µM, compound concentration 10 uM
U2OS = experiment: Incucyte cell viability with U2OS; format: toxicity, cell-based; settings: human, 10 µM, compound concentration 10 uM
[1] = 0 h, replicate number 1, timepoint 0 hours
[2] = 6 h, replicate number 1, timepoint 6 hours
[3] = 6 h, replicate number 2, timepoint 6 hours
[4] = 12 h, replicate number 1, timepoint 12 hours
[5] = 18 h, replicate number 1, timepoint 18 hours
[6] = 24 h, replicate number 1, timepoint 24 hours
[7] = 0 h, replicate number 2, timepoint 0 hours
[8] = 18 h, replicate number 2, timepoint 18 hours
[9] = 24 h, replicate number 2, timepoint 24 hours
[10] = 12 h, replicate number 2, timepoint 12 hours
Note: filed as whole numbers so only -1 and 0 and 1 occur.

SMILES | Growth Rate (Fibroblast; [1]) | Growth Rate (Fibroblast; [2]) | Growth Rate (Fibroblast; [3]) | Growth Rate (Fibroblast; [4]) | Growth Rate (Fibroblast; [5]) | Growth Rate (Fibroblast; [6]) | Growth Rate (U2OS; [3]) | Growth Rate (U2OS; [4]) | Growth Rate (U2OS; [5]) | Growth Rate (U2OS; [6]) | Growth Rate (Fibroblast; [7]) | Growth Rate (U2OS; [7]) | Growth Rate (U2OS; [8]) | Growth Rate (U2OS; [1]) | Growth Rate (U2OS; [2]) | Growth Rate (U2OS; [9]) | Growth Rate (U2OS; [10]) | Growth Rate (Fibroblast; [10]) | Growth Rate (Fibroblast; [8]) | Growth Rate (Fibroblast; [9])
CN1CCC[C@@H]1CCO[C@](C)(c1ccccc1)c1ccc(Cl)cc1.O=C(O)/C=C/C(=O)O [CLEMASTINE FUMARATE] | 0 | 1 | 0 | 0 | 0 | 0 | 0 | 0 | 0 | 0 | – | – | – | – | – | – | – | – | – | –
c1cn2cc(-c3ccc4cn[nH]c4c3)nc(Nc3ccc(N4CCOCC4)cc3)c2n1 [ENTOSPLETINIB] | – | 0 | – | 0 | 0 | 0 | 1 | 1 | 1 | 0 | 0 | 1 | 0 | – | – | – | – | – | – | –
Cn1cc(C2=C(c3cn(C4CCN(Cc5ccccn5)CC4)c4ccccc34)C(=O)NC2=O)c2ccccc21 [ENZASTAURIN] | – | 0 | – | 0 | 0 | 0 | – | 0 | 0 | 0 | – | – | – | 0 | 0 | – | – | – | – | –
O=C(NCCN1CCOCC1)c1ccc2c(c1)C(=O)c1ccc(Nc3ccc(F)c(NC(=O)c4ccccc4)c3)cc1CC2 [FS-694] | 0 | 1 | – | 0 | 0 | 0 | – | 1 | 0 | 0 | – | 0 | – | – | – | 1 | – | – | – | –
CC[C@H](C)C(=O)O[C@H]1C[C@@H](C)C=C2C=C[C@H](C)[C@H](CC[C@@H]3C[C@@H](O)CC(=O)O3)[C@H]21 [LOVASTATIN] | 0 | 1 | – | 1 | 1 | 1 | – | 0 | 0 | 0 | – | – | – | – | 0 | – | – | – | – | –
COc1ncc(-c2ccc3nccc(-c4ccnnc4)c3c2)cc1NS(=O)(=O)c1ccc(F)cc1F [OMIPALISIB] | – | 0 | – | 0 | 0 | 0 | – | 1 | 0 | 0 | 0 | – | – | 1 | 1 | – | – | – | – | –
CN1CCN(c2ccc(OC(F)(F)F)c(Nc3ncc4c(n3)-c3c(c(C(N)=O)nn3CCO)CC4)c2)CC1 [ONVANSERTIB] | – | 0 | – | 0 | 0 | 0 | – | 0 | 0 | 0 | – | – | – | 0 | 0 | – | – | – | – | –
CCN(CC)CCCCNc1ncc2cc(-c3cc(OC)cc(OC)c3)c(NC(=O)NC(C)(C)C)nc2n1 [PD-173074] | 1 | 1 | – | 0 | 0 | 0 | 1 | 0 | 0 | 0 | 0 | 0 | 1 | 1 | 0 | – | 1 | – | – | –
Cc1nc(Nc2n[nH]c3c2CN(C(=O)N[C@H](CN(C)C)c2ccccc2)C3(C)C)c2sccc2n1 [PF-03758309] | – | 0 | – | 0 | 0 | 0 | – | 0 | 0 | 0 | 0 | – | – | 1 | 0 | – | – | – | – | –
CN1CCN(CCOc2cc(OC3CCOCC3)c3c(Nc4c(Cl)ccc5c4OCO5)ncnc3c2)CC1 [SARACATINIB] | 0 | – | – | – | 1 | 1 | – | 0 | 0 | 0 | – | – | 1 | – | 0 | 1 | 1 | – | – | –
Cc1nc(-c2ccc(-c3ccc(C(=O)N4CCc5cc6c(cc54)C4(CCN(C)CC4)CO6)cc3)c(C)c2)no1 [SB-224289] | 0 | – | 0 | 0 | 0 | 0 | 1 | – | 1 | 1 | – | 0 | – | – | – | 0 | 1 | – | – | –
O=C1NCN(c2ccccc2)C12CCN(CCCOc1ccc(F)cc1)CC2 [SPIRAMIDE] | 1 | 0 | – | 0 | 0 | 0 | 1 | 0 | 0 | 0 | – | – | – | 0 | – | – | – | – | – | –
Nc1c(C(=O)NCc2ccc(C(=O)NCCCC3CCCCC3)cc2)cnn1-c1ccccc1 [SR-318] | 0 | 1 | 0 | 1 | 0 | 0 | – | 1 | 1 | 1 | 1 | 0 | – | – | 1 | – | – | 0 | – | –
O=C(NCCCC1CCCCC1)c1ccc(CNC(=O)c2cnn(-c3ccccc3)c2C(F)(F)F)cc1 [SR-321] | 1 | 1 | 0 | 1 | 1 | 1 | 0 | 1 | 1 | 1 | – | – | – | 0 | 1 | – | – | 0 | – | –
Cc1nc(-c2cn3c(n2)-c2ccc(-c4cnn(C(C)(C)C(N)=O)c4)cc2OCC3)n(C(C)C)n1 [TASELISIB] | 0 | 0 | – | 0 | 0 | 0 | – | 1 | 0 | 0 | 1 | – | 1 | 0 | 0 | – | – | – | – | –
COc1cccc([C@@H](C)NCCCc2ccccc2Cl)c1.Cl [TECALCET HYDROCHLORIDE] | 0 | – | 0 | 1 | 1 | 1 | 0 | 1 | 1 | 1 | – | – | – | 0 | – | 0 | – | 0 | 0 | 0
Cl.N#Cc1ccc2[nH]cc(CCCCN3CCN(c4ccc5oc(C(N)=O)cc5c4)CC3)c2c1 [VILAZODONE HYDROCHLORIDE] | 0 | – | 0 | 1 | 0 | 0 | 1 | 1 | 0 | 0 | – | – | – | 0 | – | – | 0 | 0 | – | –
